Experimental data from patent US20080200403A1, “9A-Carbamoyl and Thiocarbamoyl Azalides with Anti-Inflammatory Activity” (GLAXOSMITHKLINE, priority 2005, published 2008).
Where two headings read alike, the source gives them in different places.

Key:
Assay type in all cases: cell-based
[1] = test system: TNF-α; assay: Inhibition of TNF-α production by stimulated human peripheral blood leukocytes in vitro; conditions: Homo sapiens, Leukocyte, PBL, read-out: Percentage of inhibition of TNF-α production; for inhibition at 10 µM: compound 10 μM; for inhibition at 50 µM: compound 50 μM
Summary of the method: (§1)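 Dextran-isolated human PBL (3-5×10^6 per well) in RPMI with 10% FCS were preincubated 2 h at 37 °C with compounds at 50 μM or 10 μM final, then stimulated overnight with 2 μg/mL LPS, 1 μg/mL PMA or 120 μg/mL zymosan. Supernatant cytokines by sandwich ELISA; % inhibition versus stimulated untreated control.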

[2] = test system: IL-1α; assay: Inhibition of IL-1 production by stimulated human peripheral blood leukocytes in vitro; conditions: Homo sapiens, Leukocyte, PBL, read-out: Percentage of inhibition of IL-1α production; for inhibition at 10 µM: compound 10 μM; for inhibition at 50 µM: compound 50 μM
[3] = test system: IL-6; assay: Inhibition of IL-6 production by stimulated human peripheral blood leukocytes in vitro; conditions: Homo sapiens, Leukocyte, PBL, read-out: Percentage of inhibition of IL-6 production; for inhibition at 10 µM: compound 10 μM; for inhibition at 50 µM: compound 50 μM
Summary of the method: as §1

[4] = test system: IL-8; assay: Inhibition of IL-8 production by stimulated human peripheral blood leukocytes in vitro; conditions: Homo sapiens, Leukocyte, PBL, read-out: Percentage of inhibition of IL-8 production; for inhibition at 10 µM: compound 10 μM; for inhibition at 50 µM: compound 50 μM
Summary of the method: as §1

[5] = test system: A549; assay: MTT cytotoxicity assay on A549 cell line; conditions: human, 24 h
Description: (§2) To determine whether the anti-inflammatory activity of the test compounds was due to observed inhibition of cytokine production and inhibition of proliferation in vitro, and was not a consequence of cellular cytotoxicity, measurement of succinate dehydrogenase activity in living cells was performed. Cells were cultured for 24 h in RPMI medium as described above at 37° C. in the presence of the test compounds at concentrations of 50 μM and 12.5 μM. MTT [3-(4,5-dimethylthiazole-2-yl)-2,5-diphenyl tetrazolium bromide] (Promega, USA), a detection reagent, was then added and the cultures were incubated for 0.5-2 h. The amount of MTT-Formazan produced was determined using a spectrophotometer at 490 nm (Mosmann, J. Imnunol. Methods, 1983, 65: 55-63). Percentage of viable cells was calculated using the following formula:
(§3) % viable cells=([…]OD490 treated cells/OD490 nontreated cells)×100

[6] = test system: Hep G2; assay: MTT cytotoxicity assay on Hep G2 cell line; conditions: human, 24 h
Description: as §2, §3

CC[C@H]1OC(=O)[C@H](C)[C@@H](O[C@H]2C[C@@](C)(OC)[C@@H](O)[C@H](C)O2)[C@H](C)[C@@H](O[C@@H]2O[C@H](C)C[C@H](N(C)C)[C@H]2O)[C@](C)(O)C[C@@H](C)CN(C(=O)NC(C)c2cccc3ccccc23)[C@H](C)[C@@H](O)[C@]1(C)O (some centres unmarked) [Compound 12]
inhibition at 10 µM ([1]; LPS stimulated): 28%
inhibition at 50 µM ([1]; LPS stimulated): 100%
inhibition at 10 µM ([1]; zymosan stimulated): 70%
inhibition at 50 µM ([1]; zymosan stimulated): 100%
inhibition at 10 µM ([2]; LPS stimulated): 52%
inhibition at 50 µM ([2]; LPS stimulated): 82%
inhibition at 10 µM ([2]; zymosan stimulated): 80%
inhibition at 50 µM ([2]; zymosan stimulated): 100%
inhibition at 10 µM ([3]; LPS stimulated): 6%
inhibition at 50 µM ([3]; LPS stimulated): 100%
inhibition at 10 µM ([3]; zymosan stimulated): 88%
inhibition at 50 µM ([3]; zymosan stimulated): 100%
inhibition at 10 µM ([4]; LPS stimulated): 15%
inhibition at 50 µM ([4]; LPS stimulated): 100%
inhibition at 10 µM ([4]; zymosan stimulated): 40%
inhibition at 50 µM ([4]; zymosan stimulated): 100%
Percentage of viable cells after treatment ([5]; 12.5 μM): 94%
Percentage of viable cells after treatment ([5]; 50 μM): 72%
Percentage of viable cells after treatment ([6]; 12.5 μM): 93%
Percentage of viable cells after treatment ([6]; 50 μM): 8%
